From patent US7740775B2, “Method for the production of particles” (priority 2001, dated 2010)

Experiment: Particle size of the isolated crystalline product observed under a microscope
[1] = two-stage mixing with two HFC 134A streams (FIG. 6 nozzle), no surfactant
[2] = two-stage mixing, co-precipitation of salicylic acid (20% w/v) and adipic acid (3% w/v) from acetone

| particle size [2] | Compound | particle size range [1] | other results |
| --- | --- | --- | --- |
| around 10 microns | O=C(O)CCCCC(=O)O [adipic acid, hexanedioic acid] | 10-20 microns | particle size range (comparative single-stage mixing with one HFC 134A stream, no surfactant): 20-100 microns; particle size range (single-stage mixing, HFC 134A, 1% w/w Antorox B12 DF surfactant): 20-200 microns; particle size (single-stage mixing, HFC 134A, 1% w/w Brij 30 added to 10% w/v solution in ethanol): < 10 micron |
|  | CC(=O)Nc1ccc(O)cc1 [paracetamol, N-acetyl-p-aminophenol, reference compound] |  | particle size (two-stage mixing, HFC 134A, 8% w/v in methanol with 1% w/w Brij 30): < 3 micron |
| below 3 microns | O=C(O)c1ccccc1O [salicylic acid] |  |  |
|  | O=[N+]([O-])[O-].[Ag+] [silver nitrate] | ≤ 3 microns |  |
